The text below walks through data of a melting point compilation (Tetko et al.; mined from patent text by program, amines drawn as free bases though some values may be those of a salt).

Consider `O=C(CCc1ccccc1)N[C@H](Cc1ccc(C(F)(F)F)cc1)[C@@H](O)c1cccc(Oc2ccccc2)c1` (racemic), for which the melting point (commonly the temperature, or range, at which the solid turns liquid) fell in the range of 134 to 135 °C. For `CN1Cc2c(C(=O)OCCO)ncn2-c2ccccc2C1=O` the value was 222 to 223 °C. With `COC(=O)CCCCCCCCC=CCCCCCCCCC(=O)OC` the figure was 44 °C. Consider `CCc1cnc(N2CCC(c3nc4cc(-c5ccc(S(C)(=O)=O)cc5F)ccc4[nH]3)CC2)nc1`, for which the melting point is 186 to 190 °C. For `CNc1cc(Oc2cccc(C(F)(F)F)c2)nc(C(=O)NC(C)C)c1` the value was 89 to 90 °C; for `C#CC(C)(C)N1CCC(N2CCN(CCCN3CCCCC3)C2=C(C#N)C#N)CC1`, 112 to 115 °C; for `COC(=O)c1nc(Cl)c(F)c(N)c1Br`, 138 to 139 °C. With `OC1(c2ccc(C(F)(F)F)cc2)CCN(CCCc2noc3cc(F)ccc23)CC1` the figure was 150 to 152 °C; with `CC(C)COC(=O)N1CCC(c2ccc(COc3ccc(S(C)(=O)=O)cc3)nc2)CC1`, 114 to 117 °C; with `Cc1cc(Oc2ccc([N+](=O)[O-])cc2)c2cc3c(cc2n1)OCO3`, 210 to 212 °C.

Compound `CN(C=O)c1ccc(F)c(Cl)c1` had a melting point of 47 to 48 °C.

The compound `CCCn1cc2c(C3C(=O)Nc4ccc(C#N)cc43)nc(NCc3cccnc3)nc2n1` (stereo not drawn) had a melting point of 291 to 295 °C. For the compound `CCOC(=O)C(C(=O)CC(C)C)C1c2ccccc2C(=O)N1c1ccc2ccc(Cl)nc2n1` (stereo not drawn), the melting point came out at 145 °C.

Compound `Cc1cccc(C(N)=NO)c1C` had a melting point of 110 to 111 °C. With `CC(=O)Nc1cc(C(F)(F)F)ccc1-c1cc(Oc2ccc3cccnc3c2)ncn1` the figure was 137 to 138 °C; with `COc1nc(Cn2cncn2)cnc1NS(=O)(=O)c1cccc(Cl)c1Cl`, 95 to 105 °C; with `CNS(=O)(=O)c1ccccc1Nc1nc(Nc2ccc3c(c2)CNC(=O)CCN3)ncc1Cl`, 197 to 198 °C. As to `CCc1nc(OC)c(NC(=O)N2CCN(c3cc(C)cc(C)c3)CC2)cc1C`, the melting point was in the range of 135 to 136 °C. For `CC(=O)c1ccc(OCc2cccc([N+](=O)[O-])c2)cc1O` the value was 117 to 118 °C; for `COc1cc(CC(=O)O)ccc1SCc1sc(-c2ccc(C(F)(F)F)cc2)nc1C`, 181 to 182 °C. For `CCNc1ncnc2c1ncn2Cc1c(F)cccc1Cl` the value was 175 to 176 °C; for `CCOc1ccc(-c2nc(-c3ccc(OCC(=O)OC)c(C(=O)OC)c3)cs2)cc1OCC`, 96 to 97 °C; for `O=C(Nc1ccc(Cl)nc1)c1ccccc1`, 118 to 120 °C. For `COc1c(Cl)nc(Cl)nc1-c1ccco1` the value was 105 to 107 °C; for `CC(N)C(=O)Nc1coc2cc(NS(C)(=O)=O)c(Oc3ccccc3)cc2c1=O` (stereo not drawn), 111 to 113 °C. `CCCC(C)NC1=NS(=O)(=O)c2cc(Cl)c(Cl)cc2N1` (stereo not drawn) had a melting point of 217 to 220 °C. The compound `CC1CC(=O)N(CCCCN2CCN(c3ncccn3)CC2)S(=O)(=O)N1` (stereo not drawn) showed a melting point of 115 to 117 °C.

In the case of `CCCOC(=O)c1cn(CC)c2nc(N3CCNCC3)c(F)cc2c1=O`, the melting point was 133 to 135 °C. With `O=C(O)C/C=C/CC(=O)O` the figure was 197 to 198 °C.

In turn, `O=P1(c2ccccc2)c2ccccc2CN1c1ccccc1` (stereo not drawn) registered a melting point of 227 to 229 °C. With `CNc1nc(C)c(-c2ccnc(Nc3cccc(CNC(C)=O)c3)n2)s1` the figure was 253 to 255 °C; with `COc1ccc2c(c1)CCC1C2=CCC2(C)C(OC(C)=O)CCC12` (stereo not drawn), 114 to 116 °C.

As for `C=CCNc1ccc(C(=O)O)cc1`, the melting point was 144 to 146 °C. For `CCOC(=O)Cn1c(CC(=O)O)cc2c(Cl)c(Cl)ccc21` the value was 205 to 207 °C; for `COc1ccc(-n2c(C)nc3ccccc32)cc1`, 121 to 123 °C. For the compound `COc1ccc(CN2CCOCC2)c(OC)c1-c1ccc(C[C@H](NC(=O)c2c(Cl)cccc2Cl)C(=O)O)cc1`, the melting point lay in the range of 241 to 242 °C. With `O=C(NC1C2CC3CC(C2)CC1C3)c1cc(-c2ccc(Cl)cc2)n(-c2ccc(Cl)cc2Cl)n1` (stereo not drawn) the figure was 203 °C.

`O=c1[nH]nc2c3cccc(Cl)c3[nH]c(=O)n12` returned a melting point of 348 to 350 °C. For `O=c1[nH]c2cc(Cl)ccc2c(O)c1-c1cccc2ccccc12` the value was above 350 °C. `COC(=O)c1cc(Cl)cc2c1OCC(=O)N2` registered a melting point of 239 to 241 °C. For the compound `Cc1ccc(C2=NC(O)(C(F)(F)F)CN2c2ccc(S(C)(=O)=O)cc2)cc1` (stereo not drawn), the melting point was in the range of 198 to 199 °C. For `CCCCCCOc1c(OC)cc(N)c2nccc(C)c12` the value was 69 to 71 °C; for `N#CN(c1ccccc1)c1nc(N(C#N)c2ccccc2)nc(N(c2ccccc2)c2ccccc2)n1`, 280 to 284 °C; for `CN1CCN(CNC(=O)c2cccc(Nc3nccc(-c4cccnc4)n3)c2)CC1`, 220 to 224 °C. For `CC(=O)c1cccc(NC(=O)CCCC(=O)Nc2cccc(C(C)=O)c2)c1` the value was 174 to 175 °C. With `O=C1OC(P(=O)(O)c2ccccc2)c2ccccc21` (stereo not drawn) the figure was 230 to 233 °C; with `CCOc1cc(OCCCc2cn(-c3ccc(C(F)(F)F)cn3)nc2OC)ccc1CCC(=O)O`, 145 to 146 °C. For the compound `COc1c(N2CC(C)C(N)C(C)(C)C2)c(F)c(N)c2c(=O)c(C(=O)O)cn(C3CC3)c12` (stereo not drawn), the melting point fell in the range of 248 to 252 °C. For `CCNc1nc(-c2ccc(NC(=O)NCc3cccnc3)cc2)ccc1C(=O)O` the value was 216 to 218 °C; for `COC(=O)C1C=CCN2C(=O)C(C)(CCOC3CCCCO3)C(=O)N12` (stereo not drawn), 128 °C. In the case of `Cn1c(=O)n(CCO)n(CCO)c1=O`, the melting point is 126 to 127 °C.

`COC[C@@H]1Cc2ccccc2N1C(=O)OC(C)(C)C` returned a melting point of 173 to 175 °C. With `COc1ccc(C=Cc2ccc3cccc(O)c3n2)cc1` the figure was 108 to 110 °C; with `CCCc1nc(Br)c(C(C)(O)C(=O)O)n1Cc1ccc(-c2ccccc2S(=O)(=O)NC(=O)NCc2ccccc2)cc1` (stereo not drawn), 153 °C; with `CCC(CC)c1ccc(Cl)c2nc(Nc3ccc(OC)nc3OC)n(CCCCO)c12`, 116 to 118 °C. With `CC(=O)N(C)c1cc2c(nc(C)n2C)c2c1CCC(c1ccccc1)O2` (stereo not drawn) the figure was 214 to 216 °C; with `O=P1(c2ccccc2)OCC2(CO1)COP(=O)(c1ccccc1)OC2` (stereo not drawn), 264 to 265 °C. Regarding `Cc1cc(C)c(-c2c(OCOCC(C)C)oc(-c3ccsc3)c(C)c2=O)c(C)c1`, the melting point lay in the range of 102 to 104 °C. With `O=C(CCCCOc1ccc(-c2ccccc2)cc1)NO` the figure was 152 to 154 °C; with `CN1C(=O)C(C(=O)Nc2ccc(Cl)cc2)S(=O)(=O)c2ccccc21` (stereo not drawn), 220 to 222 °C; with `O=C(O)COCCc1cc2cc(Cl)ccc2n1S(=O)(=O)c1ccccc1`, 135 to 137 °C.

On to `O=c1c2ccccc2nc(-c2cc(-c3ccccc3)c(N3CCOCC3)s2)n1-c1ccccc1Cl`, for which the melting point lay within 160 to 161 °C. With `N#CSc1cnn(-c2c(Cl)cc(C(F)(F)F)cc2Cl)c1N` the figure was 137 °C.
